Tested on: NIH/3T3 cells
Experiment: Mitogenic assay on FGF-2-responsive cells (heparin control test, CellTiter AQueous One, OD 490 nm)
Format: cell-based
Protocol: We developed a mitogenic assay on cells responsive to FGF-2. The assay is run in the presence of a submaximal concentration of FGF-2 (10 ng/mL). […] At 72 h of incubation in the presence of 10 ng/mL of FGF-2, the addition of 10 μg/mL of heparin increased mitogenic activity by 58%.
Organic compounds of the invention may be assayed for their effect on FGF-2 stimulation of growth using this assay. […] For example, a “hit” can be defined as an increase in activity of >50%, in the presence of 10 ng/mL FGF-2 (with no added heparin).
The details of the assay are as follows.
1. Trypsinize cells. Remove a small aliquot of cell suspension for cell count and viability.
4. Transfer 80 μL of cell suspension to the appropriate wells of three 96-well tissue culture-treated plates.
5. Incubate plates at 37° C./5% CO2 for 18 hr.
Add 80 μL/well DMEM/0.1% BCS/1% Pen-Strep (0.1% BCS media), and incubate cells for 24 hr at 37° C./5% CO2.
A mass of 20 mg of heparin was dissolved in 2.0 mL of 0.1% BCS media for a final concentration of 10 mg/mL.
Preparation of 10× Heparin Solution: The 10 mg/mL heparin solution was diluted to 100 μg/mL by adding 50 μL of the 10 mg/mL solution to 4,950 μL of 0.1% BCS media.
A 1:10 intermediate dilution was prepared by adding 10 μL of 100 μg/mL FGF-2 stock to 90 μL of 1×PBS/0.5% BSA, for a final concentration of 10 μg/mL.
Preparation of 10×FGF-2: The 1:10 intermediate was further diluted by adding 50 μL to 4,950 μL of 0.1% BCS media, for a final concentration of 100 ng/mL. The 100 ng/mL FGF-2 solution was diluted by adding 500 μL to 4,500 μL of 0.1% BCS media, for a final concentration of 10 ng/mL.
6. 5× Heparin/FGF-2 Dilutions: Mix equal volumes of 10×FGF-2 (Steps 3 and 4) and 10× heparin stocks (Step 5) to create the 5× Treatment Intermediates as shown in Tables 3 and 4.
Add 20 μL of CellTiter AQueous One Solution to each of the treated wells.
Incubate for 1 hr at 37° C./5% CO2.

[1] = heparin 0.001 μg/mL, 1 ng/mL FGF-2, 24 hr
[2] = heparin 0.001 μg/mL, 1 ng/mL FGF-2, 48 hr
[3] = heparin 0.001 μg/mL, 1 ng/mL FGF-2, 72 hr
[4] = heparin 0.001 μg/mL, 10 ng/mL FGF-2, 24 hr
[5] = heparin 0.001 μg/mL, 10 ng/mL FGF-2, 48 hr
[6] = heparin 0.001 μg/mL, 10 ng/mL FGF-2, 72 hr
[7] = heparin 0.01 μg/mL, 1 ng/mL FGF-2, 24 hr
[8] = heparin 0.01 μg/mL, 1 ng/mL FGF-2, 48 hr
[9] = heparin 0.01 μg/mL, 1 ng/mL FGF-2, 72 hr
[10] = heparin 0.01 μg/mL, 10 ng/mL FGF-2, 24 hr
[11] = heparin 0.01 μg/mL, 10 ng/mL FGF-2, 48 hr
[12] = heparin 0.01 μg/mL, 10 ng/mL FGF-2, 72 hr
[13] = heparin 0.1 μg/mL, 1 ng/mL FGF-2, 24 hr
[14] = heparin 0.1 μg/mL, 1 ng/mL FGF-2, 48 hr
[15] = heparin 0.1 μg/mL, 1 ng/mL FGF-2, 72 hr
[16] = heparin 0.1 μg/mL, 10 ng/mL FGF-2, 24 hr
[17] = heparin 0.1 μg/mL, 10 ng/mL FGF-2, 48 hr
[18] = heparin 0.1 μg/mL, 10 ng/mL FGF-2, 72 hr
[19] = heparin 1 μg/mL, 1 ng/mL FGF-2, 24 hr
[20] = heparin 1 μg/mL, 1 ng/mL FGF-2, 48 hr
[21] = heparin 1 μg/mL, 1 ng/mL FGF-2, 72 hr
[22] = heparin 1 μg/mL, 10 ng/mL FGF-2, 24 hr
[23] = heparin 1 μg/mL, 10 ng/mL FGF-2, 48 hr
[24] = heparin 1 μg/mL, 10 ng/mL FGF-2, 72 hr
[25] = heparin 10 μg/mL, 1 ng/mL FGF-2, 24 hr
[26] = heparin 10 μg/mL, 1 ng/mL FGF-2, 48 hr
[27] = heparin 10 μg/mL, 1 ng/mL FGF-2, 72 hr
[28] = heparin 10 μg/mL, 10 ng/mL FGF-2, 24 hr
[29] = heparin 10 μg/mL, 10 ng/mL FGF-2, 48 hr
[30] = heparin 10 μg/mL, 10 ng/mL FGF-2, 72 hr

FGF-2: basic fibroblast growth factor (bFGF, FGF-2), receptor-binding ligand
Mean OD490 (1 ng/mL FGF-2, 0 μg/mL heparin, 24 hr): 0.465
Mean OD490 (1 ng/mL FGF-2, 0 μg/mL heparin, 48 hr): 0.197
Mean OD490 (1 ng/mL FGF-2, 0 μg/mL heparin, 72 hr): 0.199
Mean OD490 (10 ng/mL FGF-2, 0 μg/mL heparin, 24 hr): 0.898
Mean OD490 (10 ng/mL FGF-2, 0 μg/mL heparin, 48 hr): 0.661
Mean OD490 (10 ng/mL FGF-2, 0 μg/mL heparin, 72 hr): 0.381
Mean OD490 (assay control, 10 ng/mL FGF-2, 24 hr): 0.884
Mean OD490 (assay control, 10 ng/mL FGF-2, 48 hr): 0.737
Mean OD490 (assay control, 10 ng/mL FGF-2, 72 hr): 0.401

Heparin
Mean OD490 [1]: 0.477
Percent Difference from 0 μg/mL Heparin Mean OD490 [1]: 2.6%
Mean OD490 [2]: 0.222
Percent Difference from 0 μg/mL Heparin Mean OD490 [2]: 12.7%
Mean OD490 [3]: 0.208
Percent Difference from 0 μg/mL Heparin Mean OD490 [3]: 4.5%
Mean OD490 [4]: 0.912
Percent Difference from 0 μg/mL Heparin OD490 [4]: 1.6%
Mean OD490 [5]: 0.641
Percent Difference from 0 μg/mL Heparin OD490 [5]: −3.0%
Mean OD490 [6]: 0.416
Percent Difference from 0 μg/mL Heparin OD490 [6]: 9.2%
Mean OD490 [7]: 0.430
Percent Difference from 0 μg/mL Heparin Mean OD490 [7]: −7.5%
Mean OD490 [8]: 0.200
Percent Difference from 0 μg/mL Heparin Mean OD490 [8]: 1.5%
Mean OD490 [9]: 0.199
Percent Difference from 0 μg/mL Heparin Mean OD490 [9]: 0.0%
Mean OD490 [10]: 0.859
Percent Difference from 0 μg/mL Heparin OD490 [10]: −4.3%
Mean OD490 [11]: 0.641
Percent Difference from 0 μg/mL Heparin OD490 [11]: −3.0%
Mean OD490 [12]: 0.417
Percent Difference from 0 μg/mL Heparin OD490 [12]: 9.4%
Mean OD490 [13]: 0.419
Percent Difference from 0 μg/mL Heparin Mean OD490 [13]: −9.9%
Mean OD490 [14]: 0.226
Percent Difference from 0 μg/mL Heparin Mean OD490 [14]: 14.7%
Mean OD490 [15]: 0.199
Percent Difference from 0 μg/mL Heparin Mean OD490 [15]: 0.0%
Mean OD490 [16]: 0.863
Percent Difference from 0 μg/mL Heparin OD490 [16]: −3.9%
Mean OD490 [17]: 0.830
Percent Difference from 0 μg/mL Heparin OD490 [17]: 25.6%
Mean OD490 [18]: 0.459
Percent Difference from 0 μg/mL Heparin OD490 [18]: 20.5%
Mean OD490 [19]: 0.398
Percent Difference from 0 μg/mL Heparin Mean OD490 [19]: −14.4%
Mean OD490 [20]: 0.202
Percent Difference from 0 μg/mL Heparin Mean OD490 [20]: 2.5%
Mean OD490 [21]: 0.212
Percent Difference from 0 μg/mL Heparin Mean OD490 [21]: 6.5%
Mean OD490 [22]: 0.938
Percent Difference from 0 μg/mL Heparin OD490 [22]: 4.5%
Mean OD490 [23]: 0.978
Percent Difference from 0 μg/mL Heparin OD490 [23]: 48.0%
Mean OD490 [24]: 0.583
Percent Difference from 0 μg/mL Heparin OD490 [24]: 53.0%
Mean OD490 [25]: 0.433
Percent Difference from 0 μg/mL Heparin Mean OD490 [25]: −6.9%
Mean OD490 [26]: 0.196
Percent Difference from 0 μg/mL Heparin Mean OD490 [26]: −0.5%
Mean OD490 [27]: 0.188
Percent Difference from 0 μg/mL Heparin Mean OD490 [27]: −5.5%
Mean OD490 [28]: 1.071
Percent Difference from 0 μg/mL Heparin OD490 [28]: 19.3%
Mean OD490 [29]: 0.992
Percent Difference from 0 μg/mL Heparin OD490 [29]: 50.1%
Mean OD490 [30]: 0.602
Percent Difference from 0 μg/mL Heparin OD490 (increase in mitogenic activity) [30]: 58.0%
Percent Difference from 0 μg/mL Heparin OD490 (increase in mitogenic activity) (heparin 10 μg/mL, 10 ng/mL FGF-2, 72 hr, listed as heparin): 58%
FGF-2 activity in the presence of heparin (increasing concentrations of heparin, FIG. 18): increased with increasing concentrations of heparin

Source: US20090233845A1, “Methods and compositions for non-covalently enhanced receptor binding” (priority 2008, published 2009)
